Reference: BindingDB's records for patent US20250109139 (Shanghaitech University, 2025)

Target: D(2) dopamine receptor (Homo sapiens, UniProt P14416)
Assay: Radioligand Competition Binding Assay
Method: A 10 cm culture dish was used for transfection with […] of dopamine D2 receptors and 40 μL of polyethylenimine (PEI hereafter). […] A vacuum pump was used to suck off the culture medium, 3 mL of lysis buffer was added to each culture dish, and the cells were placed in a 4° C. cold room for 10 minutes. After the cells were detached, the cells were transferred to a 15 mL centrifuge tube and centrifuged at 1500 rpm for 5 minutes at 4° C., and the supernatant was discarded. The cell pellet was transferred to a tissue homogenizer, and 3 mL of lysis buffer was added and fully ground until the cells were broken. Then, cell suspension was equally aliquoted into several EP tubes, centrifuged at 12000 rpm for 5 minutes at 4° C., and the supernatant was discarded. […] First, a standard binding buffer was added to the cell membrane component containing the dopamine D2 receptors, and the cell membrane was disrupted and resuspended with an electric tissue homogenizer. 30 μL of membrane protein suspension was added to each well of a 96-well plate. […] Next, 30 μL of [3H]-Methylspiperone was added to each well of the 96-well plate. […] The machine readout value reflected the amount of [3H]-Methylspiperone bound on the membrane, and after further data processing, the affinity Ki values of different compounds for the dopamine D2 receptors were obtained.

D(2) dopamine receptor, sequence (P14416 whole entry): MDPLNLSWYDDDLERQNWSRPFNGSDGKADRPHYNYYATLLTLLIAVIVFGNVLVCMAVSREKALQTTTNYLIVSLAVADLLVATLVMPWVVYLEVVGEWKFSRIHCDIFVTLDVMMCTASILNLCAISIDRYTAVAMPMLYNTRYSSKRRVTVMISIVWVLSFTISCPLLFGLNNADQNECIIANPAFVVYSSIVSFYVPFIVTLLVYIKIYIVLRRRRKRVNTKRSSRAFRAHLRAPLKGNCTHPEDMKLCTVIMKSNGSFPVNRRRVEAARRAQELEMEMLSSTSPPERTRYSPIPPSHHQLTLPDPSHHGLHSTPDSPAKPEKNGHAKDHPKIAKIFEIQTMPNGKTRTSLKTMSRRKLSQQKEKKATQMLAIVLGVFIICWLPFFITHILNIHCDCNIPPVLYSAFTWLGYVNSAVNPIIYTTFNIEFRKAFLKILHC

Ki: 38 nM
Structure (SMILES): CCOc1cccc2c3c(oc12)CN(CCCCc1ccc2ccc(=O)[nH]c2c1)CC3 [US20250109139, Compound I-A25]
